Measured values taken from US9718771B2, “Aniline derivative, pharmaceutical composition containing same, and use thereof” (Kissei Pharmaceutical Co., Ltd., priority 2014, dated 2017).

How the values were obtained:
[1] = tested on: Naïve T cells-transferred colitis model; experiment: Drug efficiency evaluation in naïve T cells-transferred colitis model; type: in vivo; conditions: SCID mice, mean ± standard error; for Body weight change ratio (%): oral twice a day from day 15, 15 mg/kg, day 30; for Colon weight (%) / DAI score (%): oral twice a day, 15 mg/kg, vehicle group = 100%
Experimental: The Drug Efficiency Evaluation in Naïve T Cells—Transferred Colitis Model
(1) Purification of CD45RB Positive Naïve T Cells and Transfer the Cells into SCID Mice
After female BALB/c mice (Charles River Japan, 8-weeks-old in use) were sacrificed by blood removal from cervical vein under inhalation anesthesia with isoflurane spleens were harvested from these mice. Spleens were washed with ice-cold PBS (phosphate buffered saline, Invitrogen) and stored in 50 mL tube containing PBS on ice. Spleens stored on ice were mashed with the upper portion of slide glasses inside a biological safety cabinet, and filtered through a cell filter (pore size 70 μm), and the filtrate was centrifuged at 500×g, room temperature for 5 minutes. After the supernatant was removed, 12 mL of RBC lysis buffer (Biolegend) was added to a cell pellet and it was resuspended and left for about 3 minutes. The supernatant was removed after centrifugation and the hemolytic process was performed by repeating same procedure once again.
The cells were purified with Mouse Naive T cell CD4^+/CD62L^+/CD44^low Colum Kit (R&D systems). The cells performed with the hemolytic process, were suspended by column buffer attached to the above Column Kit, and purified through a cell filter (pore size 70 μm) after centrifugation at 500×g, room temperature for 5 minutes. The cells were resuspended with column buffer, and antibody cocktails attached to the above Column Kit were added to this and mixed. After that, the cells were purified according to the protocol of the Column Kit.
Next, purification of CD45RB positive cells was performed by MACS (registered mark) separator (Miltenyi Biotec). The purified cells were suspended with 2 mL of PBS containing 0.5% BSA, and reacted at room temperature for 15 minutes after adding FITC (fluorescein isothiocyanate)-labeled anti-CD45RB antibody (Biolegend). After washing two times with PBS containing 0.5% BSA by centrifugation, the cells were resuspended with 2 mL of PBS containing 0.5% BSA and reacted at room temperature for 10 minutes after adding anti-FITC microbeads (Miltenyi Biotec). After washing one time with PBS containing 0.5% BSA by centrifugation, the cells were resuspended with 3 mL of PBS containing 0.5% BSA, and a fraction of CD45RB positive cells was purified according to the protocol of MACS (registered trademark) separator. In the process of elution after detached from MACS (registered trademark) separator, the cells were separated with 5 mL of PBS. The cell suspension was washed one time by centrifugation with PBS, resuspended by appropriate PBS and measured the cell number as naïve T cells suspension for transfer. Female CB17/Icr-scid/scid Jcl (SCID mice) (Charles River Japan, 8-weeks-old in use) were induced colitis by intraperitoneal administration of 500 μL (divided into 250 μL two times) of naïve T cells suspension prepared at 6×10^5 cells/mL by PBS.
(2) Measurement of Body Weight and Procedure for Administration of Drugs
Body weights were measured at day 1, 8 and 15 as day 0 when naïve T cells were transferred to mice. Mice were grouped evenly, based on body weight change at day 15. The measurement of body weight was performed two times a week after day 15. A solvent (Vehicle) and test compounds were administered twice a day from the evening of day 15. The administration solution was prepared as indicated below. Firstly, 0.5% methyl cellulose (Wako pure chemicals) of 1/10 volume of total volume was added to test compound, and a suspension was prepared by sonication. […] After that, administration solutions for test compounds were prepared by sonication while adding distilled water of 9/10 volume of total volume to these suspensions in several batches. A solution prepared in the same volume ratios of 0.5% methyl cellulose and distilled water as administration solutions for test compounds was used as vehicle. Administration solutions for vehicle or test compounds were orally administered to mice at 5 mL/kg.

EAE model = experiment: Drug efficiency evaluation in experimental autoimmune encephalomyelitis (EAE) model; type: in vivo; conditions: DA rats, oral twice a day, 15 mg/kg, day 0 to day 13; mean ± standard error
Experimental: The Drug Efficiency Evaluation in Experimental Autoimmune Encephalomyelitis (EAE) Model
An EAE model (experimental autoimmune encephalomyelitis, hereinafter referred to as EAE), which is widely used as an animal model reflecting the pathological condition of human multiple sclerosis was prepared using DA rats (Japan SLC, 8 to 9-week-old in use) as described below, and the effect of test compound was confirmed.
Firstly, the emulsion for immunization was prepared by the method described below. After rats were sacrificed by exsanguination from the carotid artery under anesthesia of isoflurane, two spinal cords and a brain were collected. […]
The EAE score was evaluated daily to day 13 as day 0 when DA rats were immunized. The EAE score was evaluated as 0-5 points: 0 points: no symptoms, 1 point: walkable straight with normal our limbs but complete loss of tail tonus, 2 points: slight paralysis of a limb (especially hind limbs) and walkable wobbly, 3 points: full paralysis of two limbs (especially hind limbs) and walkable with a limp, 4 points: tetraplegia, moribund or abasia, 5 points: dead.
The area under the curve was calculated based on the variation per day of EAE score during evaluation periods from immunization day 0 to day 13, and used as an index for effects of test compounds.

With `CCN(c1ccc(Cl)c(C)c1)C(C)c1ccc(C)c(CN2CC(C(=O)O)C2)c1` (stereo not shown) [Compound 2-6, 1-(5-{1-[(4-Chloro-3-methylphenyl)(ethyl)amino]ethyl}-2-methylbenzyl)azetidine-3-carboxylic acid] the “Body weight change ratio (%)” value [1] was 1.7 ± 1.1 %, the “Colon weight (%)” value [1] was 36.8 ± 17.1 % and the “DAI score (%)” value [1] was 24.3 ± 11.8 %.

In the case of `CCN(c1ccc(Cl)c(C(F)(F)F)c1)C(C)c1ccc(C)c(CN2CC(C(=O)O)C2)c1` (stereo not shown) [Compound 2-7, 1-(5-{1-[(4-Chloro-3-trifluoromethylphenyl)(ethyl)amino]ethyl}-2-methylbenzyl)-azetidine-3-carboxylic acid], the “Body weight change ratio (%)” value [1] is reported as 1.6 ± 1.2 %, the “Colon weight (%)” value [1] is reported as 32.4 ± 14.2 % and the “DAI score (%)” value [1] is reported as 22.1 ± 14.8 %. The “Area under the curve of EAE score” value (EAE model) was 6.1 ± 1.6.
